Assay results published in US12668576B2, “Pyrazolamide derivative, preparation method therefor, and application thereof” (SHENZHEN ZHONGGE BIOLOGICAL TECHNOLOGY CO., LTD., priority 2021, dated 2026).

Biological target: T1, EP4 receptor (Homo sapiens, UniProt P35408)
T1 construct: expressed in transfected cells; host or cells: Flp-In CHO cells (Flpin-CHO-EP4)
Assay: Antagonist activity against EP4 receptor by cAMP assay
Format: cell-based
Conditions: Flpin-CHO-EP4 cells, PGE2 stimulation, cAMP readout; starting concentration 5 μM, dilution factor 4
Procedure: Eu-CAMP tracer (1/50) was diluted with a lysis buffer and 10 μL was added to per well of the detection plate. Ulight-anti-CAMP (1/150) was diluted with the lysis buffer and 10 μL was added to per well of the detection plate, and incubated at room temperature for 1 h.

T1 sequence (P35408 whole entry): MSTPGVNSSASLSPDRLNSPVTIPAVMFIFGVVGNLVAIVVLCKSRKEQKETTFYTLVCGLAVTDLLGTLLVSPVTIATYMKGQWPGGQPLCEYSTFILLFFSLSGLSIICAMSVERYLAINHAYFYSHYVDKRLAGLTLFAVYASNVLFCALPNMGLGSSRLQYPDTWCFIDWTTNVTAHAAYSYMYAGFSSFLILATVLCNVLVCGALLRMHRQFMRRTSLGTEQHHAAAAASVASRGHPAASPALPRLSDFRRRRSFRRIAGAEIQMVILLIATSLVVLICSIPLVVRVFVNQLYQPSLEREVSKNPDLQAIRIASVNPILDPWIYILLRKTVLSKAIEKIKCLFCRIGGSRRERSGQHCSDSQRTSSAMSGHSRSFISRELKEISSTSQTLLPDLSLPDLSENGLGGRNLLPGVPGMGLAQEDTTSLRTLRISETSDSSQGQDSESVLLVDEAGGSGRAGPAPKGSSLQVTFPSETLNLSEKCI

C[C@H](NC(=O)c1c(C(F)F)nn(C)c1Oc1cccc(S(F)(F)(F)(F)F)c1)c1ccc(C(=O)O)cc1 [Example 1, 4-(1-(3-(difluoromethyl)-1-methyl-5-(3-(pentafluorothio)phenoxy)-1H-pyrazole-4-carboxamido)ethyl)benzoic acid]
IC50: 6.59 nM
